This is an account of results in ChEMBL document CHEMBL2417441, “Synthesis, structure, and cytotoxicity studies of some fungal isochromanes” (J Nat Prod, 2013).

The source made the active and inactive calls. The rule behind the calls is not given here.

The subject of assay [1] is HCT-116. Put plainly: Induction of apoptosis in human HCT116 cells assessed as DNA fragmentation at 5 uM after 72 hrs by TUNEL assay. Type of assay: functional, cell-based.
In assay [2] the test system is HCT-116. As to the kind of experiment: Induction of apoptosis in human HCT116 cells at 5 uM after 72 hrs by fluorescence microscopic analysis relative to etoposide. Type of assay: functional.
The subject of assay [3] is HCT-116. Put plainly: Cytotoxicity against human HCT116 cells after 72 hrs by WST-8 assay. Type of assay: functional, cell-based. Conditions: HCT-116, 72 h.

On to `CC(C)=C1Oc2c(ccc3c2[C@@H](O)O[C@H](C)C3)C1=O` [(+)-PSEUDODEFLECTUSIN], for which, in assay [1], the outcome was Active. In addition, the “fold change (FC)” value in assay [2] is recorded as 2. Besides, the IC50 in assay [3] stood at 5 µM. As for `CO[C@H]1O[C@H](C)Cc2ccc3c(c21)O[C@H](C(C)C)C3=O`, the IC50 in assay [3] is more than 100 µM. On the same count and under the same terms, the same measure for `CO[C@H]1O[C@H](C)Cc2ccc3c(c21)O[C@@H](C(C)C)C3=O` (relative stereo): more than 100 µM; for `CC[C@@]1(O)C(=O)OCc2c1cc1n(c2=O)Cc2cc3ccccc3nc2-1` [CAMPTOTHECIN]: 0.016 µM.

As for `CC(C)[C@H]1Oc2c(ccc3c2[C@@H](O)O[C@H](C)C3)C1=O`, in assay [3], the IC50 is more than 100 µM.

In assay [3], `CC(C)[C@@H]1Oc2c(ccc3c2[C@@H](O)O[C@H](C)C3)C1=O` gave an IC50 of more than 100 µM. Still for that read-out and setting: the same measure for `C[C@@H](O)Cc1cccc(O)c1CO`: more than 100 µM; for `CO[C@H]1O[C@H](C)Cc2ccc3c(c21)OC(=C(C)C)C3=O` [USTUSORANE C]: 5.9 µM. On the same count and under the same terms, then `CC(C)=C1Oc2c(ccc3c2C(=O)O[C@H](C)C3)C1=O`, with 9.8 µM.

Broadly, the IC50 is the point on the concentration scale where inhibition reaches its midpoint. A lower IC50 goes with greater potency.
